Here are results for 10 molecules from patent US12404276B2, “Substituted pyrrolo[3,4-c]pyrazoles for treating gastric acid-related diseases” (SHANGHAI MEDICILON INC., priority 2019, dated 2025).

This assay concerns the target T1, H+/K+ ATPase (Oryctolagus cuniculus, UniProt P27112).
T1 construct: The stomach tissue of the rabbit was separated; from tissue; host or cells: rabbit stomach fundus mucosa, microsomal/Ficoll membrane fraction
Briefly: Determination of compounds' inhibition of H+/K+ ATPase enzyme activity (malachite green, OD 620 nm). The class given is biochemical. Particulars: enzyme extracted from rabbit stomach mucosa; pH 6.5; 500 μM ATP; 37° C.; read-out: IC50(μM) inhibition rate (IC50) of H+/K+ ATPase enzyme activity. From the text: Test Example: Determination of Compounds' Inhibition of H+/K+ ATPase Enzyme Activity
The following experiment is used to determine the inhibitory effect of the compound of the present invention on the H+/K+ ATPase enzyme activity.
• Plate reader: SpectraMax M5(MD) • Malachite Green (Sigma Aldrich, 213020-25G) • Ammonium molybdate (Sigma Aldrich, 277908-20G) • ATP (Sigma Aldrich, A1852-1VL). 2. Buffer Preparation • Enzyme working solution: titrating the enzyme, diluting the enzyme with buffer solution 1, and taking 5 μl of the diluted solution into 50 μl reaction system • ATP solution: 100 mM ATP was diluted to 5 mM with no K+ buffer, and 5 μl of the diluted solution was added to the 50 μl reaction system, that is, the final concentration of ATP was 500 μM MLG color development liquid: 0.12% MLG, 7.5% ammonium molybdate, 11% Tween-20 was mixed as 100:25:2, and adding 15 μl of the mixture into each well during detection. • Buffer 1: 50 mM Tris-HCl pH 6.5, 5 mM magnesium chloride (magnesium chloride), 10 μM valinomycin (valinomycin) • Buffer 2: 50 mM Tris-HCl pH 6.5, 5 mM magnesium chloride (magnesium chloride), 10 μM valinomycin (valinomycin), 20 mM KCl • Homogenization buffer: 10 mmol/L Tris-HCl, pH 6.8, 0.25 M sucrose (sucrose), 1 mmol/LEDTA 7.5% Ficoll layering solution: homogenization buffer+7.5% (W/W) (Ficoll 400). 3. Experimental Steps […] Enzyme Extraction • (1) The stomach tissue of the rabbit was separated, and the blood was washed with tap water, food residue. • (2) The fundus portion was thoroughly washed with pre-cooled NaCl solution to remove surface mucus. • (3) The stripped mucosa was filled into a sample bag or a 50 ml centrifuge tube, and quickly freezing in a liquid nitrogen tank. • (4) The tissue was removed, minced with surgical scissors, and a pre-cooled homogenization buffer (4 ml/g tissue) was added and homogenized in a tissue homogenizer for 2 to 10 minutes. • (5) After homogenization, if there were larger tissue particles, they could be removed by centrifugation (600 g, 10 min), and then the supernatant was transferred to a clean centrifuge tube. After centrifugation at 20000 g for 30 minutes, then the supernatant was transferred to a clean centrifuge tube at 100000 g for 90 minutes, and the precipitate was collected. • (6) Resuspending the precipitate with homogenization buffer, blowing uniformly, adding 7.5% Ficoll layering solution at equal ratio, centrifuging at 100000 g for 90 minutes, and collecting the precipitate. • (7) Resuspending the precipitate with homogenization buffer, blowing uniformly, and the protein concentration was measured by Bradford. Freezing in tubes at −80° C. for later use. 3.2. H+/K+ ATPase Activity Experiment • (1) Adding 35 μl of reaction buffer to each experimental well, and then adding […]. • (2) Adding 5 μl buffer 1 containing 10% DMSO to the whole enzyme and buffer well. • (3) Adding 5 μl of 10× compound working solution to the compound well and mixing well. • (4) Adding 5 μl of buffer 1 to the buffer well. • (5) Adding 5 μl of 10× enzyme working solution to the remaining wells, mixing and incubating at 37° C. for 30 minutes. • (6) Adding 5 μl of 10×ATP working solution to all experimental wells, mixing and incubating at 37° C. for 20 min. • (7) Adding 15 μl MLG chromogenic solution to all experimental wells, and uniformly mixing and incubating at room temperature for 5-30 min. • (8) The reading number of 620 nm was detected by an M5 instrument. 4. Data Analysis
The inhibition rate is calculated with the following formula: Inhibition rate (IC50)=[OD (sample well)−OD (full enzyme well containing potassium chloride)]/[(OD (full enzyme well containing potassium chloride)−(OD (full enzyme well without potassium chloride)]×100% 5. Experimental Results

T1 sequence (P27112 whole entry): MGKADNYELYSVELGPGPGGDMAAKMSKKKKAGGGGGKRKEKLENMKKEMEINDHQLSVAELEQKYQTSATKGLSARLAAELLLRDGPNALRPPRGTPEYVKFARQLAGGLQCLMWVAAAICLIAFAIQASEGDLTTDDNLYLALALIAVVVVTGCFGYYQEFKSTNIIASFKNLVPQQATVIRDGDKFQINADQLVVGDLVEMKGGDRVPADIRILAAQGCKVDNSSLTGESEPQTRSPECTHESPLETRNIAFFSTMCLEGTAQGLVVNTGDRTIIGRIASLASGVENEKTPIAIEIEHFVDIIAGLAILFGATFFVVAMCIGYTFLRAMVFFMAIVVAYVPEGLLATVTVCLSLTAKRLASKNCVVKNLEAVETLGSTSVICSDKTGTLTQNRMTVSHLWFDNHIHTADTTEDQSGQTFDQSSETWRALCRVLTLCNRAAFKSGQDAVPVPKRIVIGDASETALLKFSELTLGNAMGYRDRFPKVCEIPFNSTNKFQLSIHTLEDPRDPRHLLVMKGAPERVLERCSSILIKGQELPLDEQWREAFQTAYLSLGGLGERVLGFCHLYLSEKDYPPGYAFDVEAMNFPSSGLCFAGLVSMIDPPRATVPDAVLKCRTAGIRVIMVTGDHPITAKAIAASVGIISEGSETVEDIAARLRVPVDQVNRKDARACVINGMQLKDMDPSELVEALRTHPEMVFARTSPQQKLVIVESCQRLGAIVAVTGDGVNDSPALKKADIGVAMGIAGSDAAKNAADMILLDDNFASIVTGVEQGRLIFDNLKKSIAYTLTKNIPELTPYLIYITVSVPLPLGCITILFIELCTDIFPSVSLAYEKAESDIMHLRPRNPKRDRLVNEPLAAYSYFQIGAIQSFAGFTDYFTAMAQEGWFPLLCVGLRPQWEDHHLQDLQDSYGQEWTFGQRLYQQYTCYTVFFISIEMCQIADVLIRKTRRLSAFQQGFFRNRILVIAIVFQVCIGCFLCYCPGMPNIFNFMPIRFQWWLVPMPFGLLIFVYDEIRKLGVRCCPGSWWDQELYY
T1 sequence (P18597 whole entry partner): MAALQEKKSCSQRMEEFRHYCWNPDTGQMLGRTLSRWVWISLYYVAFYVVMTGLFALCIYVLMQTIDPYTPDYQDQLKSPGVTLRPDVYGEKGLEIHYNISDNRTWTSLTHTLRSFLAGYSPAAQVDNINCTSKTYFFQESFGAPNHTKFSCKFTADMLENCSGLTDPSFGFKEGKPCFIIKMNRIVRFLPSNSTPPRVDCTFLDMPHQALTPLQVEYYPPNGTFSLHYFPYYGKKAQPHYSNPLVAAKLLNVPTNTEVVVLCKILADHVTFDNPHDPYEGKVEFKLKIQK

On to `CN1Cc2nn(Cc3cccc(C4=CCOCC4)c3)c(-c3ccccc3F)c2C1` [Example 5, 2-(3-(3,6-dihydro-2H-pyran-4-yl)benzyl)-3-(2-fluorophenyl)-5-methyl-2,4,5,6-Tetrahy dropyrrolo[3,4-C]pyrazole], for which the IC50 came to 0.0883 µM.
As to `CN1Cc2nn(Cc3ccc(O)c(C4=CCOCC4)c3)c(-c3ccccc3F)c2C1` [Example 1, 2-(3,6-dihydro-2H-pyran-4-yl)-4-((3-(2-fluorophenyl)-5-methyl-5,6-dihydropyrrolo[3,4-c]pyrazole-2(4H)-yl)methyl)phenol], the IC50 came to 0.233 µM.
Turning to `CN1Cc2nn(Cc3cccc(C4=CCNCC4)c3)c(-c3ccccc3F)c2C1` [Example 9, 3-(2-fluorophenyl)-5-methyl-2-(3-(1,2,3,6-tetrahydropyridin-4-yl)benzyl)-2,4,5,6-tetrahydropyrrolo[3,4-C]pyrazole], the IC50 came out at 0.208 µM.
`CN1Cc2nn(Cc3ccc(F)c(C4=CCOCC4)c3)c(-c3ccccc3F)c2C1` [Example 7, 2-(3-(3,6-dihydro-2H-pyran-4-yl)-4-fluorobenzyl)-3-(2-fluorophenyl)-5-methyl-2,4,5,6-tetrahydropyrrolo[3,4-c]pyrazole]: the IC50 amounted to 0.114 µM.
`CN1Cc2nn(Cc3cccc(C4=CCOCC4)c3)c(-c3cccnc3F)c2C1` [Example 10, 2-(3-(3,6-dihydro-2H-pyran-4-yl)benzyl)-3-(2-fluoropyridin-3-yl)-5-methyl-2,4,5,6-tetrahydropyrrolo[3,4-c]pyrazole]: the IC50 came out at 0.769 µM.
Turning to `CN1Cc2nn(Cc3ccc(O)c(C4=CCCOC4)c3)c(-c3ccccc3F)c2C1` [Example 2, 2-(5,6-dihydro-2H-pyran-3-yl)-4-((3-(2-fluorophenyl)-5-methyl-5,6-dihydropyrrolo[3,4-c]pyrazole-2(4H)-yl)methyl)phenol], the IC50 turned out to be 0.0559 µM.
In the case of `CN1Cc2nn(Cc3cc(Cl)cc(C4=CCOCC4)c3)c(-c3ccccc3F)c2C1` [Example 6, 2-(3-chloro-5-(3,6-dihydro-2H-pyran-4-yl)benzyl)-3-(2-fluorophenyl)-5-methyl-2,4,5,6-tetrahydropyrrolo[3,4-c]pyrazole], the IC50 came to 0.121 µM.
Consider `CN1Cc2nn(Cc3cccc(C4=CCCOC4)c3)c(-c3ccccc3F)c2C1` [Example 3, 2-(3-(5,6-dihydro-2H-pyran-3-yl)benzyl)-3-(2-fluorophenyl)-5-methyl-2,4,5,6-tetrahydropyrrolo[3,4-C]pyrazole], for which the IC50 came to 0.197 µM.
Take `CN1Cc2nn(Cc3cc(O)cc(C4=CCCOC4)c3)c(-c3ccccc3F)c2C1` [Example 4, 3-(5,6-dihydro-2H-pyran-3-yl)-5-((3-(2-fluorophenyl)-5-methyl-5,6-dihydropyrrolo[3,4-c]pyrazole-2(4H)-yl)methyl)phenol]: the IC50 was 0.113 µM.
As to `CN1Cc2nn(Cc3cc(O)cc(C4=CCOCC4)c3)c(-c3ccccc3F)c2C1` [Example 8, 3-(3,6-dihydro-2H-pyran-4-yl)-5-((3-(2-fluorophenyl)-5-methyl-5,6-dihydropyrrolo[3,4-c]pyrazole-2(4H)-yl)methyl)phenol], the IC50 worked out at 0.0811 µM.
